Results from PMC11243598, “Inhibition of Monoamine Oxidases by Pyridazinobenzylpiperidine Derivatives” (Molecules, 2024).

Assays:
MAO-B [1] = molecular target: T1, MAO-B (Homo sapiens, UniProt P27338); test: biochemical; conditions: for remaining activity at 10 µM: read-out: Residual Activity at 10 µM (%) MAO-B
T1 sequence (P27338 1-520): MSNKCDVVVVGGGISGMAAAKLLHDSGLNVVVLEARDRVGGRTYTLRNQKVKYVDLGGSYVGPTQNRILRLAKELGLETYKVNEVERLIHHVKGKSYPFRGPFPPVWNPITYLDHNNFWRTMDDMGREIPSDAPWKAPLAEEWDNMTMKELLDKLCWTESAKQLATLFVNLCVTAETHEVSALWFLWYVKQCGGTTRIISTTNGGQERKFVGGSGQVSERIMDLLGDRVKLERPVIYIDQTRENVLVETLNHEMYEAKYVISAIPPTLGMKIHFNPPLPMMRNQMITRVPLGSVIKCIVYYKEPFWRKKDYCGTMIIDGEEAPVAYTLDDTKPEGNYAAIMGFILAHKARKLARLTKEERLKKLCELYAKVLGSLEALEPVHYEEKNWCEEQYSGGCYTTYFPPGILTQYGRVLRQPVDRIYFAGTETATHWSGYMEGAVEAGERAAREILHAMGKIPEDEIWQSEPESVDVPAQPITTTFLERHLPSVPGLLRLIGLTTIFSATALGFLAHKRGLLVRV

MAO-B [2] = molecular target: T1, MAO-B; test: Reversibility of MAO-B inhibition by dialysis; assay type: biochemical; design: purchased Sigma-Aldrich; conditions: for Reversibility of MAO-B inhibition: dialysis, compared with safinamide and pargyline
MAO-B [3] = molecular target: T1, MAO-B; test: MAO-B inhibition kinetics (Lineweaver-Burk and secondary plots); assay type: biochemical; design: purchased Sigma-Aldrich; conditions: for Type of MAO-B inhibition: LB plots, five substrate and three inhibitor concentrations; for Ki: secondary plot of LB slopes, benzylamine substrate
hMAO-A = molecular target: T2, hMAO-A (Homo sapiens, UniProt P21397); test: Inhibition of recombinant hMAO-A, kynuramine substrate, continuous absorbance method; conditions: for remaining activity at 10 µM: read-out: Residual Activity at 10 µM (%) MAO-A
T2 sequence (P21397 1-527): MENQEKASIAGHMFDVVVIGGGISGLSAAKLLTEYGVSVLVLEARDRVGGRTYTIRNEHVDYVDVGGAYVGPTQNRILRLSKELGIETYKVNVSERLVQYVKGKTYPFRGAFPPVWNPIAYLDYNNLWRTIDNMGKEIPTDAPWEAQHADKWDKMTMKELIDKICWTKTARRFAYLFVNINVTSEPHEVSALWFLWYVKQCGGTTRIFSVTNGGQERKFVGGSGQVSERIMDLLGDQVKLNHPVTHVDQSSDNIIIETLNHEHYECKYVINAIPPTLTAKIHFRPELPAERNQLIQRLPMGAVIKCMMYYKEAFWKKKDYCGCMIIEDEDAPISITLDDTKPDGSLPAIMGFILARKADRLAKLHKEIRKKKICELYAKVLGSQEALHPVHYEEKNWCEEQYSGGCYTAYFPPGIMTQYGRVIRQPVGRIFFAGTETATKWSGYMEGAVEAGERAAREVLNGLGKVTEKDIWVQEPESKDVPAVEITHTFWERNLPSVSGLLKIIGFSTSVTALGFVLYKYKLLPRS

MAO-B [4] = molecular target: T1, MAO-B; conditions: ratio of IC50 values within the S series
[5] = PAMPA for blood-brain barrier permeation; assay type: in vitro ADME; conditions: for Experimental Pe / Papp: PAMPA-BBB, pH 7.4; for Papp: read-out: Experimental Pe
MAO-B [6] = conditions: cited from earlier work

With `O=C(Cn1nc(N2CCC(Cc3ccccc3)CC2)ccc1=O)NN=Cc1cccc(Cl)c1` [Compound S5, N′-3-chlorobenzylidene-2-(3-(4-benzylpiperidin-1-yl)-6-oxopyridazin-1(6H)-yl)acetohydrazide] the IC50 (MAO-B [1]) was 203 ± 4 nM, the remaining activity at 10 µM (MAO-B [1]) was -24.6 ± 8.51% and the “Reversibility of MAO-B inhibition” value (MAO-B [2]) was “reversible”. The “Type of MAO-B inhibition” value (MAO-B [3]) was “competitive”, the Ki (MAO-B [3]) was 155 ± 50 nM and the IC50 (hMAO-A) was 3.86 ± 0.77 µM. For the same compound, the remaining activity at 10 µM (hMAO-A) was 25.6 ± 3.85%, the “Times higher MAO-B inhibition than other derivatives” value (MAO-B [4]) was 4.82–53.94 times and the “Experimental Pe” value [5] was 5.75e-06 cm/s. The Papp [5] was 5.75 ± 0.13 ×10⁻⁶ cm/s and the “Prediction (BBB permeation class)” value ([5]; class from Pe) was “CNS+ (Pe (10^−6 cm·s^−1) > 4.00: CNS+ (high permeation))”.
In the case of `N#Cc1ccccc1C=NNC(=O)Cn1nc(N2CCC(Cc3ccccc3)CC2)ccc1=O` [Compound S16, N′-2-cyanobenzylidene-2-(3-(4-benzylpiperidin-1-yl)-6-oxopyridazin-1(6H)-yl)acetohydrazide], the IC50 (MAO-B [1]) is reported as 979 ± 206 nM, the remaining activity at 10 µM (MAO-B [1]) is reported as -12.9 ± 1.14% and the “Reversibility of MAO-B inhibition” value (MAO-B [2]) is reported as “reversible”. For the same compound, the “Type of MAO-B inhibition” value (MAO-B [3]) was “competitive”, the Ki (MAO-B [3]) was 721 ± 74 nM and the IC50 (hMAO-A) was 6.15 ± 0.305 µM. The remaining activity at 10 µM (hMAO-A) was 33.2 ± 9.25%, the “Experimental Pe” value [5] was 3.78e-06 cm/s and the Papp [5] was 3.78 ± 0.2 ×10⁻⁶ cm/s.
Compound `C[C@H](NCc1ccc(OCc2cccc(F)c2)cc1)C(N)=O` [Safinamide, reference compound] has a remaining activity at 10 µM (MAO-B [1]) of -15.6 ± 0.86%, an activity (MAO-B [2]; about 2.0 times IC50 (S5 0.4 μM, S16 2.0 μM), 30 min pre-incubation, read-out: Residual MAO-B activity before recovery, undialyzed (AU)) of 28.3% and a remaining activity at 10 µM (hMAO-A) of 69 ± 1.36%.
In the case of `O=C(Cn1nc(N2CCOCC2)ccc1=O)NN=Cc1ccc(Cl)cc1` [TR16], the IC50 (MAO-B [6]) is given as 170 nM.
